Measured values from patent US20120195860A1, “LATENT NEURAL STEM CELL POPULATION” (priority 2007, published 2012).
Where a name gives a salt, the structure may show the parent alone.

Tests used:
[1] = test system: DCX+ve / DCX-ve and PNA positive adult hippocampal cells; assay: neurosphere assay on sorted hippocampal cells (DCX-GFP FACS, PNA binding); type: cell-based, mouse
Protocol: E14, P2 and adult brains were collected as described above and processed either whole or dissected into specific regions (olfactory bulb, cortex, cerebellum and subventricular zone (SVZ)). GFP+ve cells were separated by fluorescence-activated cell sorting (FACS) using a FACS Vantage cell sorter (BD Biosciences). A wild-type littermate control was used to determine background fluorescence levels. For primary neurosphere cultures the cells were plated at a density of 500 cells/well in 96-well plates (Falcon/BD Biosciences, San Jose, Calif.) with 0.2 ml complete medium per well. […] The primary neurospheres were then counted and collected for passaging or differentiation. Results of the neurosphere counts were expressed as mean + or − standard error and statistical analysis was performed using a standard t-Test (two sample assuming equal variance).
Mice in which the green fluorescent protein (GFP) is driven by the Doublecortin (DCX) promoter (DCX-GFP) were used for the separation of DCX^+ve cells. […] DCX-GFP^+ve and DCX-GFP^−ve cells were separated by fluorescence-activated cell sorting (FACS) using a FACS Vantage cell sorter (BD Biosciences) as described (see above). A wild-type littermate control was used to determine background fluorescence levels. Potassium was added to DCX^+ve and DCX^−ve cells at a final concentration of 15 mM and the number of neurospheres counted after 10 days.

[2] = test system: cells derived from the spinal cord; assay: activation of cells derived from the spinal cord; type: cell-based; conditions: KCl
[3] = test system: adult mouse hippocampal cells; assay: primary neurosphere culture, hippocampus; type: cell-based
Protocol: Adult (6-8 week old) male C57/B16 mice were killed by cervical dislocation, their brains immediately removed and the hippocampus, SVZ, olfactory bulb or cortex dissected. The tissue was enzymatically digested with 0.1% trypsin-EDTA (Gibco/Invitrogen, Eugene, Oreg.) for 7 minutes at 37° C., followed by a wash with 0.014% w/v trypsin inhibitor (type I-S from soybean; Sigma-Aldrich. Australia, Sydney, Australia) dissolved in Hepes-buffered minimum essential medium (HEM), which consisted of minimum essential medium (Gibco/Invitrogen) supplemented with 16 mM HEPES (Sigma-Aldrich Australia) and 100 units/ml penicillin/streptomycin (Gibco/Invitrogene). The tissue was centrifuged at 100 rcf for 7 minutes, following which the pellet was resuspended in 1 ml neurosphere growth medium, mechanically triturated until smooth, then filtered through a 40 μm cell sieve (Falcon/BD Biosciences Australia, North Ryde, Australia). The neurosphere growth medium consisted of mouse NeuroCult™ NSC Basal Medium plus mouse NeuroCult™ NSC Proliferation Supplements (StemCell Technologies, Vancouver, Canada) with 2% bovine serum albumin (Roche, Basel, Switzerland) and 2 μg/ml heparin (Sigma-Aldrich Australia). […]

[4] = test system: hippocampal precursors of mice that underwent SE; assay: hippocampal neurosphere assay after status epilepticus in vivo; design: species or system mouse
Protocol: Seizures were induced in 6-8 week old C57BL/6 male mice by the administration of pilocarpine, a muscarinic cholinergic agonist. Thirty minutes prior to pilocarpine administration, the mice were injected with 2.5 mg/kg of the cholinergic antagonist scopolamine methyl nitrate (Sigma-Aldrich) to reduce peripheral cholinergic effects. They then received intraperitoneal injections of 350 mg/kg pilocarpine hydrochloride (Sigma-Aldrich). […] Seizures were stopped 2 hours after status epilepticus onset, with an intraperitoneal injection of 5 mg/kg diazepam (Patulin, Parnell Laboratories Sydney, Australia).
In addition we observed that extended depolarization, between 24 and 48 hours exposure to high level of KCl is required for the stimulation to occur in WT hippocampus confirming the need for prolonged depolarization.

[5] = test system: 33 week HD hippocampal precursors; assay: hippocampal neurosphere assay, Huntington's disease R6/1 mice; type: cell-based, mouse; conditions: 33 week old HD mice
Excerpt: R6/1 (B6CBA-TgN(HDexon1)61 Gpb/Pan) mice were originally obtained from Jackson Laboratory (Bar Harbor, Me.) and maintained by backcrossing to CBB6F1 females. For the neurosphere assays we used HD exon 1 carriers (R6/1) and aged matched wild-type littermates. Huntington's Disease is a neurodegenerative disorder that affects the striatum and cortex as well as hippocampus (Murphy et al., 2000). Previous studies have shown that older symptomatic R6/1 transgenic mice have a significant decrease in cell proliferation in the hippocampus compared to wild-type mice whereas younger pre-symptomatic R6/1 and WT mice had similar levels of proliferation (Lazic et al., 2004). […] We observed a decrease in the total number of hippocampal neuroapheres with age in WT mice that was not observed in HD mice.

[6] = test system: cortical cells; assay: primary neurosphere culture, cortex; type: cell-based, mouse; conditions: depolarization (potassium)
Protocol: Adult (6-8 week old) male C57/B16 mice were killed by cervical dislocation, their brains immediately removed and the hippocampus, SVZ, olfactory bulb or cortex dissected. The tissue was enzymatically digested with 0.1% trypsin-EDTA (Gibco/Invitrogen, Eugene, Oreg.) for 7 minutes at 37° C., followed by a wash with 0.014% w/v trypsin inhibitor (type I-S from soybean; Sigma-Aldrich. Australia, Sydney, Australia) dissolved in Hepes-buffered minimum essential medium (HEM), which consisted of minimum essential medium (Gibco/Invitrogen) supplemented with 16 mM HEPES (Sigma-Aldrich Australia) and 100 units/ml penicillin/streptomycin (Gibco/Invitrogene). The tissue was centrifuged at 100 rcf for 7 minutes, following which the pellet was resuspended in 1 ml neurosphere growth medium, mechanically triturated until smooth, then filtered through a 40 μm cell sieve (Falcon/BD Biosciences Australia, North Ryde, Australia). […]
The neurosphere growth medium already contained 4.18 mM KCl. […] The primary neurospheres were then counted and collected for passaging or differentiation. Results of the neurosphere counts were expressed as mean ± standard error and statistical analysis was performed using a standard t-Test (two sample assuming equal variance).

Compound	response of DCX-ve vs DCX+ve population to high levels of potassium ([1]; 15 mM potassium, 10 days)	activation of PNA positive population ([1]; adult hippocampal cells separated by peanut agglutinin binding)	activation of spinal cord derived cells [2]	increase in number of neurospheres, stimulated compared to control ([3]; 18 month old hippocampus, depolarizing conditions)	formation of large neurospheres ([3]; potassium-induced depolarization, hippocampus)	further stimulation of precursors from SE mice by depolarizing potassium ([4]; SE at least 2 hours, sacrificed after 48 hours, potassium added in vitro)	further increase of HD hippocampal precursors by potassium depolarization in vitro [5]	increase in neurosphere number in cortex [6]	activation of latent hippocampal population by induced seizures ([4]; injections of pilocarpine hydrochloride, FIG. 8A)
[Cl-].[K+] [KCl, potassium chloride]	it is this population, and not the DCX^+ve population, that responds	activated	activation	over 12 fold	stimulates the formation of increased numbers of large neurospheres	no further stimulatory effect	could not be further increased	over 3 fold	–
CC[C@@H]1C(=O)OC[C@@H]1Cc1cncn1C [pilocarpine hydrochloride]	–	–	–	–	–	–	–	–	activation
